We go through 8 molecules from ChEMBL document CHEMBL1156131, “Discovery of pyrazol-3-ylamino pyrazines as novel JAK2 inhibitors” (Bioorg Med Chem Lett, 2009).

Each structure is given as a SMILES string. pIC50: −log10 of the molar value.

T2 sequence (O60674 whole entry): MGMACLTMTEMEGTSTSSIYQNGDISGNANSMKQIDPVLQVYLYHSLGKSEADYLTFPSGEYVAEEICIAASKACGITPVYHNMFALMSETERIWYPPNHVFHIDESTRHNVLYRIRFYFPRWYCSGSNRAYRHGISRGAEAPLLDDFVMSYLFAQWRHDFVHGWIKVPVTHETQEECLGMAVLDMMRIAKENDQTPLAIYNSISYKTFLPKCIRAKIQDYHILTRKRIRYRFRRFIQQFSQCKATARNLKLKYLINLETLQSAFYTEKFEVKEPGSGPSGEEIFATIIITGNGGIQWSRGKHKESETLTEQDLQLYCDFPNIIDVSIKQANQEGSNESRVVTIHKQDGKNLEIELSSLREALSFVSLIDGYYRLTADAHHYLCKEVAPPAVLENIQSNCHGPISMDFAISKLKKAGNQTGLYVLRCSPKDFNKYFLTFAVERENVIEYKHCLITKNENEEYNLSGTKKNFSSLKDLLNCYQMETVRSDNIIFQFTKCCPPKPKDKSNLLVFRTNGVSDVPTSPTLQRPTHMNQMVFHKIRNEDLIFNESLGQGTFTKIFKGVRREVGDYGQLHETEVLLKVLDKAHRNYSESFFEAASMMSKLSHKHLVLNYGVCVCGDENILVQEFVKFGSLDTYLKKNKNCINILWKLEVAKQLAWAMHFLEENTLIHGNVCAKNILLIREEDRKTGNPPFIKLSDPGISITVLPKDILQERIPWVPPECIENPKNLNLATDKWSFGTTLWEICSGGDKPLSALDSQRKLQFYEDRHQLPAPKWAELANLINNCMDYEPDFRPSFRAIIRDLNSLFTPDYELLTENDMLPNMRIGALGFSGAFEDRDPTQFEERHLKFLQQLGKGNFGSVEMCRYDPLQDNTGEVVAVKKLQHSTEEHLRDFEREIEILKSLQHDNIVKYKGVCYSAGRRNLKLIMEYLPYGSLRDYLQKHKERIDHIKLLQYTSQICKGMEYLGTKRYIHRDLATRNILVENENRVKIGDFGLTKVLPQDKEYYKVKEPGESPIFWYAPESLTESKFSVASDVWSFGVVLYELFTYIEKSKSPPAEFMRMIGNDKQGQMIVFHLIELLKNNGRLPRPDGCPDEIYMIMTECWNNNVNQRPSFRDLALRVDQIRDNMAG

The target in one assay is T1, Tyrosine-protein kinase JAK3 (Homo sapiens, UniProt P52333).
T1 sequence (P52333 whole entry): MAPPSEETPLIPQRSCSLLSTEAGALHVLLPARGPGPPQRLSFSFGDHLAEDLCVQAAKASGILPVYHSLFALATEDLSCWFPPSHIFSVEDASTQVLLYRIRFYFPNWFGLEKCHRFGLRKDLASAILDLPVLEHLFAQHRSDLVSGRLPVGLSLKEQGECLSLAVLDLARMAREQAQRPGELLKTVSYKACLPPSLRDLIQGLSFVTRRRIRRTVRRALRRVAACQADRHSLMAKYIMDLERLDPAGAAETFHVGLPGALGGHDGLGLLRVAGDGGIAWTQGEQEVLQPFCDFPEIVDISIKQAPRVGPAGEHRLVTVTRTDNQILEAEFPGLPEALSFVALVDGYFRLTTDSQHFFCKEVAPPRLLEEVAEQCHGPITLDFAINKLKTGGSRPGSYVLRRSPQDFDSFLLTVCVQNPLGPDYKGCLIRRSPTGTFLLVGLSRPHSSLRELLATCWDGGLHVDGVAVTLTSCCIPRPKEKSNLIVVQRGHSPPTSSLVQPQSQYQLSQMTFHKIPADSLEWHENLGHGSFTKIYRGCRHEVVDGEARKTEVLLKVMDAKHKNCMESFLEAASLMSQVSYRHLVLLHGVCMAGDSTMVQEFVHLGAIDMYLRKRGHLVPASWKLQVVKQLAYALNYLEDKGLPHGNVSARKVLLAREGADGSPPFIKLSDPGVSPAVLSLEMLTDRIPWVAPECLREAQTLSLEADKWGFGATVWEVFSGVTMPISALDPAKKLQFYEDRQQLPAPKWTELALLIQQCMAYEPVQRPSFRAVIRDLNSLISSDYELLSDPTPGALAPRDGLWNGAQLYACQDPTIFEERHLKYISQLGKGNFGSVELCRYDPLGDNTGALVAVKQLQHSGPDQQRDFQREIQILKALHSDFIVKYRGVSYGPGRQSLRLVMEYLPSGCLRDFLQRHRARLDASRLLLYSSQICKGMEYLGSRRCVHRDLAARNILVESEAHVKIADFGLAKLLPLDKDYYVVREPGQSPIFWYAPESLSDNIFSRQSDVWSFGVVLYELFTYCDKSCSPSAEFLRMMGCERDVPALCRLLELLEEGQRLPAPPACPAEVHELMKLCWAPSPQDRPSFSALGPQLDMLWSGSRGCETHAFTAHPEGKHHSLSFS
The assay is described as follows: Inhibition of JAK3 using 5 mM ATP as a substrate.
As for `Cc1cc(Nc2nc(O[C@@H](C)c3ccc(F)cn3)c(C#N)nc2C)[nH]n1`, the pIC50 (usually the IC50 on a negative log10 scale, so that one unit is a factor of ten) was under 4.52.
In turn, `Cc1cc(Nc2nc(N[C@H](C)c3ncc(F)cn3)c(C#N)nc2C)[nH]n1` gave a pIC50 of under 4.52.
As to `Cc1cc(Nc2cncc(N[C@@H](C)c3ncc(F)cn3)n2)n[nH]1`, the pIC50 is 4.86.

The next assay has as its target T2, Tyrosine-protein kinase JAK2 (Homo sapiens, UniProt O60674). The assay is described as follows: Inhibition of JAK2 using 2 mM ATP as a substrate.
In turn, `COc1cc(Nc2cncc(N[C@@H](C)c3ccc(F)cn3)n2)[nH]n1` had a pIC50 of 8.52.
Still for that read-out and setting: under `Cc1cc(Nc2nc(O[C@@H](C)c3ccc(F)cn3)c(C#N)nc2C)[nH]n1` stands 8.40.
For `Cc1cc(Nc2nc(N[C@H](C)c3ncc(F)cn3)c(C#N)nc2C)[nH]n1`, the pIC50 was 7.30.
Still for that read-out and setting: the figure for `Cc1cc(Nc2nc(N[C@H](C)c3ccc(F)cn3)c(C#N)nc2C)n[nH]1` is 7.12.
As for `Cc1cc(Nc2nc(NC(C)c3ccc(F)cn3)c(C#N)nc2C)n[nH]1` (centres undefined), the pIC50 was over 8.52.
`Cc1cc(Nc2cncc(N[C@@H](C)c3ncc(F)cn3)n2)n[nH]1` gave a pIC50 of over 8.52.
Same read-out and setting: under `Cc1cc(Nc2nc(N[C@@H](C)c3ccc(F)cn3)cnc2C)[nH]n1` stands over 8.52; under `CC(C)Oc1cc(Nc2cncc(N[C@@H](C)c3ccc(F)cn3)n2)[nH]n1`, 8.00.

The target in another assay is T2, Tyrosine-protein kinase JAK2. The assay is described as follows: Inhibition of JAK2 using 5 mM ATP as a substrate.
Turning to `COc1cc(Nc2cncc(N[C@@H](C)c3ccc(F)cn3)n2)[nH]n1`, the pIC50 is 8.10.
Take `Cc1cc(Nc2nc(O[C@@H](C)c3ccc(F)cn3)c(C#N)nc2C)[nH]n1`: the pIC50 was 6.85.
`Cc1cc(Nc2nc(N[C@H](C)c3ncc(F)cn3)c(C#N)nc2C)[nH]n1`: the negative logarithm of the IC50 (pIC50) is 4.98.
Consider `Cc1cc(Nc2nc(N[C@H](C)c3ccc(F)cn3)c(C#N)nc2C)n[nH]1`, for which the pIC50 was 6.04.
Regarding `Cc1cc(Nc2nc(NC(C)c3ccc(F)cn3)c(C#N)nc2C)n[nH]1` (centres undefined), the negative-log IC50 (pIC50) was 7.33.
On the same count and under the same terms, the figure for `Cc1cc(Nc2cncc(N[C@@H](C)c3ncc(F)cn3)n2)n[nH]1` is 8.52; for `Cc1cc(Nc2nc(N[C@@H](C)c3ccc(F)cn3)cnc2C)[nH]n1` it is 7.74.
On the same count and under the same terms, the figure for `CC(C)Oc1cc(Nc2cncc(N[C@@H](C)c3ccc(F)cn3)n2)[nH]n1` is 6.38.
